Experimental findings from PubChem BioAssay AID328 (DTP/NCI, 2004) are described below.

Where “and” joins values, the source holds several entries; their conditions need not be identical. Equal values may be shown once. Toxic doses and inconclusive results are not listed.

In this assay the test system is BDF1 mice, P388 leukemia ip, median survival T/C. Put plainly: NCI In Vivo Anticancer Drug Screen. Data for tumor model P388 Leukemia (intraperitoneal) in B6D2F1 (BDF1) mice. The conditions noted are these: endpoint: median survival time, higher = longer survival. The method, boiled down:
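Compound-treated tumour-bearing mice were compared with vehicle-treated controls. Survival was recorded, and the value is the treated-group measurement divided by the control-group measurement (T/C).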

Setting [1] is: dose: 50.0 mg/kg/injection, schedule: Q01DX009 (ip), vehicle: saline with Tween-80.
The mark [2] stands for this setting: dose: 100.0 mg/kg/injection, schedule: Q01DX009 (ip), vehicle: saline with Tween-80.
Setting [3] is: dose: 200.0 mg/kg/injection, schedule: Q01DX009 (ip), vehicle: saline with Tween-80.
Setting [4] is: dose: 100.0 mg/kg/injection, schedule: Q04DX003 (ip), vehicle: Klucel (hydroxypropylcellulose) (HPC).
Where [5] appears, read: dose: 400.0 mg/kg/injection, schedule: Q04DX003 (ip), vehicle: saline.
[6] abbreviates: dose: 50.0 mg/kg/injection, schedule: Q01DX009 (ip), vehicle: saline.
Where [7] appears, read: dose: 50.0 mg/kg/injection, schedule: Q04DX003 (ip), vehicle: saline.
Where [8] appears, read: dose: 100.0 mg/kg/injection, schedule: Q01DX009 (ip), vehicle: saline.
[9] abbreviates: dose: 100.0 mg/kg/injection, schedule: Q04DX003 (ip), vehicle: saline.
Where [10] appears, read: dose: 200.0 mg/kg/injection, schedule: Q04DX003 (ip), vehicle: saline.
The mark [11] stands for this setting: dose: 12.5 mg/kg/injection, schedule: Q01DX009 (ip), vehicle: saline with Tween-80.
Setting [12] is: dose: 25.0 mg/kg/injection, schedule: Q01DX009 (ip), vehicle: saline with Tween-80.
[13] abbreviates: dose: 25.0 mg/kg/injection, schedule: Q04DX003 (ip), vehicle: Klucel (hydroxypropylcellulose) (HPC).
Setting [14] is: dose: 50.0 mg/kg/injection, schedule: Q04DX003 (ip), vehicle: Klucel (hydroxypropylcellulose) (HPC).

For `COC(=O)C(C#N)=N/C=C/C=C1/N(C)c2ccccc2C1(C)C`, the T/C is, setting by setting: under setting [1], 96 % of control; under setting [2], 92 % of control; under setting [3], 99 % of control.

As to `CC(=O)OCc1ccc[n+](C2=C([O-])C(=O)C([n+]3cccc(COC(C)=O)c3)=C([O-])C2=O)c1`, the T/C under setting [1] was 104 % of control, the T/C under setting [2] is 98 % of control and the T/C under setting [3] was 102 % of control.

Take `CC(Cl)CN(Cc1cc(O)c(CN(CC(C)Cl)CC(C)Cl)cc1O)CC(C)Cl` (stereo not given): the T/C under setting [4] is 118 % of control; the T/C (dose: 264.0 mg/kg/injection, schedule: Q04DX003 (ip), vehicle: Klucel (hydroxypropylcellulose) (HPC)) was 91 % of control; the T/C (dose: 264.0 mg/kg/injection, schedule: Q04DX003 (ip), vehicle: saline) is 113 % of control; the T/C (dose: 400.0 mg/kg/injection, schedule: Q04DX003 (ip), vehicle: Klucel (hydroxypropylcellulose) (HPC)) is 154 % of control; the T/C under setting [5] is 109 % of control.

As for `Cc1cc([N+](=O)[O-])cc([N+](=O)[O-])c1OC(=O)c1ccc(N=C(N)N)cc1`, the T/C is 110 % of control (dose: 25.0 mg/kg/injection, schedule: Q01DX009 (ip), vehicle: saline); 110 % of control under setting [6]; 109 % of control under setting [7]; 110 % of control under setting [8]; 100 % of control under setting [9]; 110 % of control (dose: 150.0 mg/kg/injection, schedule: Q01DX009 (ip), vehicle: saline). The T/C under setting [10] was 90 % of control.

For `Oc1cc(CN2CCCC2)c(O)cc1CN1CCCC1`, the T/C by setting is: under setting [11], 111 % of control; under setting [12], 106 % of control; under setting [1], 111 % of control; under setting [2], 122 % of control.

Take `COC1C=CC=CC=C1`: the T/C is, setting by setting: (dose: 15.0 mg/kg/injection, schedule: Q01DX009 (ip), vehicle: saline with Tween-80) 113 % of control; (dose: 30.0 mg/kg/injection, schedule: Q01DX009 (ip), vehicle: saline with Tween-80) 100 % of control; (dose: 60.0 mg/kg/injection, schedule: Q01DX009 (ip), vehicle: saline with Tween-80) 113 % of control.

As for `C[n+]1c(-c2ccccc2)c2ccccc2c2ccccc21`, the T/C (dose: 0.75 mg/kg/injection, schedule: Q01DX009 (ip), vehicle: water) was 102 % of control; the T/C (dose: 1.5 mg/kg/injection, schedule: Q01DX009 (ip), vehicle: water) is 105 % of control; the T/C (dose: 1.5 mg/kg/injection, schedule: Q04DX003 (ip), vehicle: water) was 111 % of control; the T/C (dose: 3.0 mg/kg/injection, schedule: Q01DX009 (ip), vehicle: water) is 105 % of control; the T/C (dose: 3.0 mg/kg/injection, schedule: Q04DX003 (ip), vehicle: water) is 111 % of control; the T/C (dose: 6.0 mg/kg/injection, schedule: Q04DX003 (ip), vehicle: water) is 93 % of control.

On to `Clc1c(CI)ccc(CI)c1Cl`, for which the T/C is, setting by setting: (dose: 11.0 mg/kg/injection, schedule: Q04DX003 (ip), vehicle: Klucel (hydroxypropylcellulose) (HPC)) 100 % of control; (dose: 12.5 mg/kg/injection, schedule: Q01DX009 (ip), vehicle: saline sonified) 113 % of control; (dose: 16.5 mg/kg/injection, schedule: Q01DX009 (ip), vehicle: saline with Tween-80) 90 % of control; (dose: 16.5 mg/kg/injection, schedule: Q04DX003 (ip), vehicle: Klucel (hydroxypropylcellulose) (HPC)) 100 % of control; (dose: 16.5 mg/kg/injection, schedule: Q04DX003 (ip), vehicle: saline sonified) 122 % of control; under setting [12], 90 % of control. For the same molecule, the T/C under setting [13] was 109 % of control; the T/C (dose: 37.5 mg/kg/injection, schedule: Q04DX003 (ip), vehicle: Klucel (hydroxypropylcellulose) (HPC)) was 109 % of control; the T/C (dose: 50.0 mg/kg/injection, schedule: Q01DX009 (ip), vehicle: saline sonified) was 118 % of control; the T/C under setting [14] was 110 % of control; the T/C under setting [4] was 120 % of control.

For `CCOC(=O)/C(C)=C\c1c(C)[nH]c(=O)[nH]c1=O`, the T/C under setting [6] is 102 % of control; the T/C under setting [7] was 104 % of control; the T/C under setting [8] was 103 % of control; the T/C under setting [9] is 100 % of control; the T/C (dose: 200.0 mg/kg/injection, schedule: Q01DX009 (ip), vehicle: saline) is 99 % of control; the T/C under setting [10] was 95 % of control and 100 % of control. The T/C (dose: 400.0 mg/kg/injection, schedule: Q01DX009 (ip), vehicle: saline) is 96 % of control; the T/C under setting [5] was 91 % of control and 95 % of control.

As for `CC1(C)CC1(Br)Br`, the T/C under setting [11] is 100 % of control; the T/C under setting [12] is 106 % of control; the T/C under setting [2] is 98 % of control and 100 % of control.

Take `O=C1c2ccccc2C(=O)c2c(O)ccc(O)c21`: the T/C is 104 % of control under setting [2]; 109 % of control under setting [3]; 109 % of control (dose: 400.0 mg/kg/injection, schedule: Q01DX009 (ip), vehicle: saline with Tween-80).

As for `CCOC(c1ccccc1)(c1ccccc1)c1ccccc1`, the T/C by setting is: (dose: 100.0 mg/kg/injection, schedule: Q04DX003 (ip), vehicle: other) 105 % of control; (dose: 200.0 mg/kg/injection, schedule: Q04DX003 (ip), vehicle: other) 105 % of control; (dose: 400.0 mg/kg/injection, schedule: Q04DX003 (ip), vehicle: other) 110 % of control.

As to `O=C1NCCN1c1cccc([N+](=O)[O-])c1`, the T/C under setting [13] is 100 % of control and the T/C under setting [14] is 100 % of control.

In the case of `CC1(C)N=C(N)N=C(N)N1c1ccc(Cl)c(Cl)c1`, the T/C by setting is: (dose: 7.2 mg/kg/injection, schedule: Q01DX009 (ip), vehicle: Klucel (hydroxypropylcellulose) (HPC)) 122 % of control; (dose: 16.0 mg/kg/injection, schedule: Q01DX009 (ip), vehicle: Klucel (hydroxypropylcellulose) (HPC)) 181 % of control; (dose: 20.0 mg/kg/injection, schedule: Q04DX003 (ip), vehicle: Klucel (hydroxypropylcellulose) (HPC)) 120 % of control; (dose: 22.5 mg/kg/injection, schedule: Q01DX009 (ip), vehicle: Klucel (hydroxypropylcellulose) (HPC)) 172 % of control; (dose: 26.0 mg/kg/injection, schedule: Q04DX003 (ip), vehicle: Klucel (hydroxypropylcellulose) (HPC)) 154 % of control; (dose: 30.0 mg/kg/injection, schedule: Q01DX009 (ip), vehicle: Klucel (hydroxypropylcellulose) (HPC)) 95 % of control. Moreover, under “dose: 40.0 mg/kg/injection, schedule: Q04DX003 (ip), vehicle: Klucel (hydroxypropylcellulose) (HPC)”, the T/C was 231 % of control and 158 % of control.

For `Cc1cc(O)c(O)c(C(C)(C)CC(C)(C)C)c1`, the T/C was 95 % of control (dose: 100.0 mg/kg/injection, schedule: Q04DX003 (ip), vehicle: saline + alcohol); 104 % of control (dose: 200.0 mg/kg/injection, schedule: Q04DX003 (ip), vehicle: saline + alcohol); 100 % of control (dose: 400.0 mg/kg/injection, schedule: Q04DX003 (ip), vehicle: saline + alcohol).

`CC[C@@H](C(=O)[C@@H](C)[C@@H](O)[C@H](C)CCc1ccc(C)c(O)c1C(=O)O)[C@H]1O[C@](CC)([C@H]2CC[C@](O)(CC)[C@H](C)O2)C[C@@H]1C`: the T/C was 108 % of control (dose: 3.12 mg/kg/injection, schedule: Q01DX009 (ip), vehicle: Klucel (hydroxypropylcellulose) (HPC)); 110 % of control (dose: 6.25 mg/kg/injection, schedule: Q01DX009 (ip), vehicle: Klucel (hydroxypropylcellulose) (HPC)); 118 % of control and 119 % of control (dose: 12.5 mg/kg/injection, schedule: Q01DX009 (ip), vehicle: Klucel (hydroxypropylcellulose) (HPC)).

For `[N-]=[N+]=C1C(=O)NC(=O)N2C3CC(O)C(COC12)O3` (stereo not given), the T/C (dose: 132.0 mg/kg/injection, schedule: Q01DX009 (ip), vehicle: saline with Tween-80) is 154 % of control; the T/C under setting [3] was 159 % of control and 170 % of control; the T/C (dose: 300.0 mg/kg/injection, schedule: Q01DX009 (ip), vehicle: saline with Tween-80) is 170 % of control and 177 % of control.

Turning to `COc1ccccc1N1CCN(CC(O)COc2ccccc2C(C)=O)CC1` (stereo not given), the T/C runs as follows: under setting [12], 95 % of control; under setting [1], 91 % of control; under setting [2], 112 % of control.
